Source: PubChem BioAssay (NCI)
Values joined by “and” are separate entries in the source; they are usually repeats but may differ in a detail not shown here. Equal values may be shown once.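 Method: 48-hour compound exposure of cells in 96-well plates, five concentrations, linear interpolation of endpoints. GI50 is the concentration that inhibits growth by half. TGI: concentration producing complete growth inhibition.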

What was measured:
Test in all cases: NCI anticancer screen, dose series, 48 h
HOP-92 NSCLC = system: HOP-92 NSCLC
A498 renal = system: A498 renal
IGROV1 ovarian = system: IGROV1 ovarian
HCT-116 colon = system: HCT-116 colon
SF-539 CNS = system: SF-539 CNS
T-47D breast = system: T-47D breast
U251 CNS = system: U251 CNS
DU-145 prostate = system: DU-145 prostate
CAKI-1 renal = system: CAKI-1 renal
SK-MEL-2 melanoma = system: SK-MEL-2 melanoma

SMILES	GI50 (HOP-92 NSCLC)	TGI (HOP-92 NSCLC)	TGI (A498 renal)	TGI (IGROV1 ovarian)	TGI (HCT-116 colon)	TGI (SF-539 CNS)	TGI (T-47D breast)	TGI (U251 CNS)	TGI (DU-145 prostate)	GI50 (CAKI-1 renal)	TGI (CAKI-1 renal)	TGI (SK-MEL-2 melanoma)	GI50 (A498 renal)	GI50 (IGROV1 ovarian)	GI50 (HCT-116 colon)	GI50 (SF-539 CNS)	GI50 (T-47D breast)	GI50 (U251 CNS)	GI50 (DU-145 prostate)	GI50 (SK-MEL-2 melanoma)
CN1CCN(CN2C(=O)C3C4C=CC(C3C2=O)C2C3C(=O)N(CN5CCN(C)CC5)C(=O)C3C42)CC1 (configuration not stated)	35.7 µM and > 96.5 µM and > 100 µM	94.8 µM and > 100 µM	> 100 µM and 97.9 µM	> 100 µM	33.4 µM and 36.4 µM and 27.3 µM	44.4 µM and 45.4 µM and 49.1 µM	> 100 µM	38.3 µM and 37.2 µM and 33 µM	77.2 µM	44.8 µM and 33.6 µM and 70.6 µM	> 100 µM	40 µM and 35.6 µM and 30 µM	–	–	–	–	–	–	–	–
CC(=O)Nc1ccc2c(c1)c(C1=C(c3cn(C)c4ccccc34)C(=O)NC1=O)cn2C	0.807 µM	12 µM	1.79 µM	> 25 µM	> 25 µM	1.97 µM	> 25 µM	> 25 µM	> 25 µM	1.07 µM	24.3 µM	5.74 µM	0.538 µM	16.4 µM	1.09 µM	0.671 µM	1.66 µM	1.16 µM	4.02 µM	0.94 µM
O=[N+]([O-])C1C(c2ccccc2)C12c1ccccc1-c1ccccc12 (configuration not stated)	0.25 µM	2.05 µM	3.83 µM	30.1 µM	11.6 µM	9 µM	23.2 µM	14 µM	3.66 µM	1.03 µM	> 65.7 µM	31.4 µM	0.316 µM	3.41 µM	0.371 µM	1.31 µM	2.73 µM	1.03 µM	0.733 µM	4.4 µM
COc1cc([C@H]2c3cc4c(cc3O[C@@]3(O)COC(=O)[C@@H]23)OCO4)cc(OC)c1OC	–	> 100 µM	> 100 µM	> 100 µM	> 100 µM	> 100 µM	> 100 µM	> 100 µM	> 100 µM	–	> 100 µM	> 100 µM	–	–	–	–	–	–	–	–
C=C1CC2(OC1=O)C(=O)N(CCCCCCCN1C(=O)C3(CC(=C)C(=O)O3)c3ccccc31)c1ccccc12 (configuration not stated)	1.03 µM	3.64 µM	13.1 µM	2.29 µM	5.07 µM	4.27 µM	5.02 µM	12.4 µM	9.49 µM	1.4 µM	5.96 µM	17.2 µM	5.17 µM	0.966 µM	1.49 µM	1.26 µM	1.17 µM	5.81 µM	2.89 µM	7.51 µM
COc1cc(-c2nn(-c3ccc(NC(=O)c4ccc(Cl)c(Cl)c4)cc3)cc2-c2ccncc2)ccc1Cl	> 100 µM	> 100 µM	> 100 µM	> 100 µM	> 100 µM	> 100 µM	> 100 µM	> 100 µM	> 100 µM	3.67 µM	> 100 µM	> 100 µM	5.25 µM	> 100 µM	4.6 µM	2.85 µM	3.76 µM	5.7 µM	> 100 µM	5.74 µM
O=C(NNc1nc(Cl)nc(N2CCN(C(c3ccccc3)c3ccccc3)CC2)n1)c1ccccc1	1.72 µM	3.68 µM	18.8 µM	3.06 µM	3.06 µM	3.15 µM	> 100 µM	3.13 µM	4.53 µM	1.68 µM	3.1 µM	3.55 µM	3.55 µM	1.66 µM	1.62 µM	1.73 µM	3.41 µM	1.69 µM	2.15 µM	1.83 µM
CCOC(=O)c1ccc(NC(=O)N2CC(C)OC(C)C2)cc1 (configuration not stated)	> 100 µM	> 100 µM	> 100 µM	> 100 µM	> 100 µM	> 100 µM	> 100 µM	> 100 µM	> 100 µM	> 100 µM	> 100 µM	> 100 µM	> 100 µM	> 100 µM	> 100 µM	> 100 µM	> 100 µM	> 100 µM	> 100 µM	> 100 µM
CCOc1cc2ncc(C#N)c(Nc3ccc(OCc4cccc(F)c4)c(Cl)c3)c2cc1NC(=O)CC1CCSS1 (configuration not stated)	> 11.5 µM	> 25 µM	> 25 µM	> 6.27 µM	1.07 µM	> 25 µM	> 25 µM	> 25 µM	1.36 µM	1.77 µM	> 25 µM	> 7.13 µM	> 25 µM	0.578 µM	0.431 µM	2.28 µM	0.978 µM	> 6.88 µM	0.561 µM	0.99 µM
